Patent US11878970B2, “Allosteric chromenone inhibitors of phosphoinositide 3-kinase (PI3K) for the treatment of disease” (Petra Pharma Corporation, priority 2021, dated 2024)
pIC50: −log10 of the molar value.

How the values were obtained:
[1] = biological target: T1, PI3K-α (PIK3CA) H1047R mutant, p110α/p85α complex (Homo sapiens, UniProt P42336, H1047R); test: PI3K-alpha kinase (PIK3CA) biochemical activity, ADP-Glo, H1047R mutant; details: Soy PI lipid substrate
T1 construct: Recombinant, catalytically active human full length PIK3KA Wild-type and H1047R mutant; 6×His (N); purchased EMD Millipore Sigma 14-792M
T1 sequence (P42336 whole entry H1047R): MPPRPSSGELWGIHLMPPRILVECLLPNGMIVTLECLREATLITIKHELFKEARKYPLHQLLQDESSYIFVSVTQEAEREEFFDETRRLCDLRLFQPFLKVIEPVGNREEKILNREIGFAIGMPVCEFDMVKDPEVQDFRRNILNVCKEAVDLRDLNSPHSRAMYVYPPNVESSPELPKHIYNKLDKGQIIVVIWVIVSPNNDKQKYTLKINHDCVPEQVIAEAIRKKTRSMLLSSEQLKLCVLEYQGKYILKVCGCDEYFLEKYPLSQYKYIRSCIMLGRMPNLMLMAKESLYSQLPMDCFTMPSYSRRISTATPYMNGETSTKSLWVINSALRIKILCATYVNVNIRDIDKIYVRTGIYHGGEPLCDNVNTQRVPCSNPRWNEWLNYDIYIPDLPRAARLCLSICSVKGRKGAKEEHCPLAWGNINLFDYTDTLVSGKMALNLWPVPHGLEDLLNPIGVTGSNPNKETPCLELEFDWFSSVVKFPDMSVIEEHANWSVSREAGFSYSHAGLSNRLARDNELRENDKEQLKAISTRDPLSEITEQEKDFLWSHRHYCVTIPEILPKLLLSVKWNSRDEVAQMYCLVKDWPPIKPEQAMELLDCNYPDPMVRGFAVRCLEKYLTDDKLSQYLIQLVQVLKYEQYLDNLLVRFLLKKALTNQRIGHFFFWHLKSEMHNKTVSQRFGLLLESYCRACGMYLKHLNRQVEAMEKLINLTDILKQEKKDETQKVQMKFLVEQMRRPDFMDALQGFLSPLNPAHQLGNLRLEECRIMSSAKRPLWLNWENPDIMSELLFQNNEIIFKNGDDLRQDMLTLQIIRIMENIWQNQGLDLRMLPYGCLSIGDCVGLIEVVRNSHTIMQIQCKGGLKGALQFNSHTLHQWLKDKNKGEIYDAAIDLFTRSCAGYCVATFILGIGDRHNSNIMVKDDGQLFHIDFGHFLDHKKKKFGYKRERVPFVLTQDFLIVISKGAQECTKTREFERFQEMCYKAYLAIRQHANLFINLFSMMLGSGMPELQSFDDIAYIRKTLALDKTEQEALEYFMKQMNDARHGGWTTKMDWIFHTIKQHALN
T1 sequence (P27986 whole entry partner): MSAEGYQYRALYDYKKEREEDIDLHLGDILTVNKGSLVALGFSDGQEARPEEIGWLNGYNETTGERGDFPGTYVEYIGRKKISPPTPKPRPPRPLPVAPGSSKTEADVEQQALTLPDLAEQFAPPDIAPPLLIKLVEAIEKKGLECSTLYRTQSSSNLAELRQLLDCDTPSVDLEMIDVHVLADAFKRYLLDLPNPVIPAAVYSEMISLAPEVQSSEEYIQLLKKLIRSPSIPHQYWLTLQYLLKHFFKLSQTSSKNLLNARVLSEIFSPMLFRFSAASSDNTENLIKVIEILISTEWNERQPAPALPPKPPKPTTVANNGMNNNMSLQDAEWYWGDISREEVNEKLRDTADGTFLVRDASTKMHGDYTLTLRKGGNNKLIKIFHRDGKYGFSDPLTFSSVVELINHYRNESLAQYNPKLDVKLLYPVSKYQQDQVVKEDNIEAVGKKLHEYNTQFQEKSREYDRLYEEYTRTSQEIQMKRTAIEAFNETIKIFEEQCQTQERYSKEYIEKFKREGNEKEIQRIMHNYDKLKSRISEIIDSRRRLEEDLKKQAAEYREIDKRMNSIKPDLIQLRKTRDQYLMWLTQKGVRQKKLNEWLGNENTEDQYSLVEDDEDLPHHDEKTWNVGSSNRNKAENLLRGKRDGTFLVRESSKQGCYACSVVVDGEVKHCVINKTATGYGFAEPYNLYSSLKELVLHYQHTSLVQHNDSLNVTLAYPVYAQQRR
Summary of the method: (§1)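 ADP formation measured by ADP-Glo luminescence after reaction at 27 °C to about 10% ATP turnover, using 20 uM ATP, 50 uM PIP2diC8 or soy PI lipid, HEPES pH 7.4 with MgCl2. Enzyme (1-5 nM WT or H1047R p110α/p85α) and compound preincubated 1 h first; 10-point 1:3 curves fitted four-parameter for IC50.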

[2] = biological target: T2, PI3K-α (PIK3CA) wild-type (WT), p110α/p85α complex (Homo sapiens, UniProt P42336); test: PI3K-alpha kinase (PIK3CA) biochemical activity, ADP-Glo, wild-type; details: Soy PI lipid substrate
T2 construct: Recombinant, catalytically active human full length PIK3KA Wild-type and H1047R mutant; 6×His (N); purchased EMD Millipore Sigma 14-602M
Summary of the method: as §1

[3] = biological target: PI3K-α (PIK3CA) in MDA-MB-453 cells (Homo sapiens, UniProt P42336); test: PI3K-alpha kinase (PIK3CA) in vitro cell based assay, MDA-MB-453 cells, SureFire Ultra AlphaLisa; details: read-out: PI3K-α (PIK3CA) in vitro cell based assay IC50
Sequence of PI3K-α (PIK3CA) in MDA-MB-453 cells (P27986 2-724): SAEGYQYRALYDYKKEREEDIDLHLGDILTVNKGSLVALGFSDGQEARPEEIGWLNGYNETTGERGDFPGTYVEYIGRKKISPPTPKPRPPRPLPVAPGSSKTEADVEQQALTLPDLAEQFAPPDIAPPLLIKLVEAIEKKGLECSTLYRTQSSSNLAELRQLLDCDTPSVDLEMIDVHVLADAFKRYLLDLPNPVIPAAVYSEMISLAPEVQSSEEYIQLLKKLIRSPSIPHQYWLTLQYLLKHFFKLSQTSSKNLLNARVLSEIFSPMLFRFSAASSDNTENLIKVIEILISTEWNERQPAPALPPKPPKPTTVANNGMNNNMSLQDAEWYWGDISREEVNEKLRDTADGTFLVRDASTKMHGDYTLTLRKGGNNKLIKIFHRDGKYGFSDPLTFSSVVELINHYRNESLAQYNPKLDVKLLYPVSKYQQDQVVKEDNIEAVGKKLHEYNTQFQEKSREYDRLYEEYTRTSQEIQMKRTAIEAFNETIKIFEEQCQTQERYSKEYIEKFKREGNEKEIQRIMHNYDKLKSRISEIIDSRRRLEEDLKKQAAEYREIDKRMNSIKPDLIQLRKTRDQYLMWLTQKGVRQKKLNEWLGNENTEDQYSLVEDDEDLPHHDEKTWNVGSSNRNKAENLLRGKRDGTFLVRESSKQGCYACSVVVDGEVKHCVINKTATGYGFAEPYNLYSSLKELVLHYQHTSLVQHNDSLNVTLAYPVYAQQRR
Sequence of PI3K-α (PIK3CA) in MDA-MB-453 cells (P42336 whole entry): as the sequence (P42336 whole entry H1047R) above, with R1047H counted along it
Experimental: PI3K-Alpha Kinase (PIK3CA) Activity In Vitro Cell Based Assay and Determining IC50 Values for Inhibitors
The MDA-MB-453 (ATCC-HTB-131) cell line was obtained from the American Type Culture Collection (Manassas, VA). Cells were maintained in Dulbecco's Modified Eagle Media (DMEM, Gibco 11965-092) supplemented with 10% Fetal Bovine Serum, heat inactivated (FBS HI, Gibco 10082-147), 1× non-essential amino acids (NEAA, Gibco 11140-050), and 1 mM sodium pyruvate (Gibco 11360-070). Cultures were maintained in a humidified incubator at 37° C. under 5% CO2/95% air.
For compound testing in 0% FBS, MDA-MB-453 cells were seeded at a density of 1.5×10^4 cells per well in white 384-well plates in 20 μl of Minimum Essential Media (MEM) assay media with 1×NEAA, 1 mM sodium pyruvate, and 1 μg/mL human insulin (Sigma I9278). Compounds dissolved in 10 mM stock solutions in DMSO were serially diluted 1:3 in DMSO to generate a 10-point dilution series and plated using an acoustic liquid handler system (Echo 550 Series Liquid Handler, Labcyte). A 5× intermediate compound dilution plate in MEM with 1×NEAA and 1 mM sodium pyruvate (150 μM starting compound concentration in 1.5% DMSO) was then prepared. Five μl of the intermediate serially diluted compounds were added to the cell plate to final concentrations ranging from […] in 0.3% DMSO. 0.3% DMSO alone was used to establish the maximum (MAX) signal and GDC-0032 at a final concentration of 1 μM was used as a reference compound for the minimum (MIN) signal. After 3 hours treatment, the medium was removed, and the cells lysed in 10 μL of 1× SureFire Lysis buffer with shaking for 10 minutes at room temperature. The Acceptor Mix (Reaction Buffer 1+Reaction Buffer 2+Activation Buffer+SureFire Ultra Acceptor Beads) was prepared by diluting Activation buffer 25-fold in combined Reaction Buffer 1 and Reaction Buffer 2. The Acceptor beads were diluted 50-fold in the combined Reaction Buffers. Five μL of Acceptor Mix was added to each well, the plate was sealed and covered with foil and incubated for 1 hour at room temperature. The Donor Mix (dilution buffer+SureFire Ultra Donor Beads) was prepared by diluting Donor Beads 50-fold in dilution buffer. Five μL of the Donor Mix was added to each well and the plate sealed and covered with foil and incubated for 1 hour at room temperature in the dark. The plates were read on a Neo2 plate reader instrument from Biotek using standard AlphaLisa settings. Compounds were tested in duplicate and the average % inhibition at each compound concentration was used to generate a single dose response curve. The data were processed using the Genedata-Screener tool. Relative IC50 values were determined using luminescence units by calculating percent inhibition with respect to the in-plate “MIN” (GDC-0032 reference control) and “MAX” (DMSO) controls. The data was analyzed using a 4-parameter nonlinear logistic equation (four-parameter logistic concentration-response curve): Y=bottom+[(top−bottom)/1+(X/IC50)slope] where Y=% inhibition, X=concentration of inhibitor, bottom=minimum value of y attained by curve-fit, top=maximum value of y attained by curve-fit and slope=steepness of curve at the IC50. % Inhibition=[(signal at X−median Min)/(median Max−median Min)]×100 IC50: concentration of compound that reduces a given response (ligand binding, enzyme response) by 50%. Relative IC50: concentration giving half the compound's maximum response.

Row | Structure (SMILES) | pIC50 [1] | pIC50 [2] | pIC50 [3]
1 | Cc1cc(C(C)Nc2ccccc2C(=O)O)c2oc(-c3cc4cnccc4o3)cc(=O)c2c1 (single isomer, unassigned) [Example 22, 2-[1-(2-Furo[3,2-c]pyridin-2-yl-6-methyl-4-oxo-chromen-8-yl)ethylamino]benzoic acid] | > 6.30 | 6.00 to 6.30 | > 7.30
2 | Cc1cc(C(C)Nc2ccccc2C(=O)O)c2oc(-c3ccc4oc(=O)[nH]c4c3)cc(=O)c2c1 (single isomer, unassigned) [Example 24, 2-[1-[6-Methyl-4-oxo-2-(2-oxo-3H-1,3-benzoxazol-5-yl)chromen-8-yl]ethylamino]benzoic acid] | > 6.30 | 5.30 to 6.00 | 7.00 to 7.30
3 | Cc1cc(C(C)Nc2ccccc2C(=O)O)c2oc(-c3ccc4cnn(C)c4c3)cc(=O)c2c1 (single isomer, unassigned) [Example 25, 2-[1-[6-Methyl-2-(1-methylindazol-6-yl)-4-oxo-chromen-8-yl]ethylamino]benzoic acid] | > 6.30 | > 6.30 | 7.00 to 7.30
4 | Cc1cc(C(C)Nc2ccccc2C(=O)O)c2oc(-c3ccc4c(cnn4C)c3)cc(=O)c2c1 (single isomer, unassigned) [Example 26, 2-[1-[6-Methyl-2-(1-methylindazol-5-yl)-4-oxo-chromen-8-yl]ethylamino]benzoic acid] | > 6.30 | > 6.30 | > 7.30
5 | Cc1cc(C(C)Nc2ccccc2C(=O)O)c2oc(-c3ccc4c(C)nn(C)c4c3)cc(=O)c2c1 (single isomer, unassigned) [Example 27, 2-[1-[2-(1,3-Dimethylindazol-6-yl)-6-methyl-4-oxo-chromen-8-yl]ethylamino]benzoic acid] | > 6.30 | 6.00 to 6.30 | > 7.30
6 | Cc1cc(C(C)Nc2ccccc2C(=O)O)c2oc(-c3ccc4c(c3)CN(C)C4=O)cc(=O)c2c1 (single isomer, unassigned) [Example 32, 2-[1-[6-Methyl-2-(2-methyl-1-oxo-isoindolin-5-yl)-4-oxo-chromen-8-yl]ethylamino]benzoic acid] | < 5.00 | 5.00 to 5.30 | < 6.30
7 | Cc1cc(C(C)Nc2ccccc2C(=O)O)c2oc(-c3cnn4cccnc34)cc(=O)c2c1 (single isomer, unassigned) [Example 33, 2-[1-(6-Methyl-4-oxo-2-pyrazolo[1,5-a]pyrimidin-3-yl-chromen-8-yl)ethylamino]benzoic acid] | < 5.00 | < 5.00 | < 6.30
8 | Cc1cc(C(C)Nc2ccccc2C(=O)O)c2oc(-c3cnn4cccnc34)cc(=O)c2c1 (single isomer, unassigned) [Example 34, 2-[1-(6-Methyl-4-oxo-2-pyrazolo[1,5-a]pyrimidin-3-yl-chromen-8-yl)ethylamino]benzoic acid] | > 6.30 | 5.30 to 6.00 | 7.00 to 7.30
9 | Cc1cc(C(C)Nc2ccccc2C(=O)O)c2oc(-c3ccc4nccn4n3)cc(=O)c2c1 (single isomer, unassigned) [Example 35, 2-[1-(2-Imidazo[1,2-b]pyridazin-6-yl-6-methyl-4-oxo-chromen-8-yl)ethylamino]benzoic acid] | 5.00 to 5.30 | 5.00 to 5.30 | < 6.30
10 | Cc1cc(C(C)Nc2ccccc2C(=O)O)c2oc(-c3ccc4nc(C)cn4c3)cc(=O)c2c1 (single isomer, unassigned) [Example 37, 2-[1-[6-Methyl-2-(2-methylimidazo[1,2-a]pyridin-6-yl)-4-oxo-chromen-8-yl]ethylamino]benzoic acid] | < 5.00 | 5.30 to 6.00 | < 6.30
11 | Cc1cc(C(C)Nc2ccccc2C(=O)O)c2oc(-c3cc4ccncc4o3)cc(=O)c2c1 (single isomer, unassigned) [Example 40, 2-[1-(2-Furo[2,3-c]pyridin-2-yl-6-methyl-4-oxo-chromen-8-yl)ethylamino]benzoic acid] | 5.30 to 6.00 | 5.00 to 5.30 | 6.30 to 7.00
12 | Cc1cc(C(C)Nc2ccccc2C(=O)O)c2oc(-n3ncc4ccccc43)cc(=O)c2c1 (single isomer, unassigned) [Example 49, 2-[1-(2-Indazol-1-yl-6-methyl-4-oxo-chromen-8-yl)ethylamino]benzoic acid] | > 6.30 | 6.00 to 6.30 | > 7.30
13 | Cc1cn2cc(-c3cc(=O)c4cc(F)cc(C(C)Nc5ccccc5C(=O)O)c4o3)ccc2n1 (single isomer, unassigned) [Example 51, 2-[1-[6-Fluoro-2-(2-methylimidazo[1,2-a]pyridin-6-yl)-4-oxo-chromen-8-yl]ethylamino]benzoic acid] | > 6.30 | 5.30 to 6.00 | > 7.30
14 | Cc1cc(C(C)Nc2ccccc2C(=O)O)c2oc(-c3cc4ccccc4[nH]3)c(C)c(=O)c2c1 (single isomer, unassigned) [Example 52, 2-[1-[2-(1H-Indol-2-yl)-3,6-dimethyl-4-oxo-chromen-8-yl]ethylamino]benzoic acid] | > 6.30 | 6.00 to 6.30 | > 7.30
15 | Cc1cc(C(C)Nc2ccccc2C(=O)O)c2oc(-c3ccc4nn(C)cc4n3)cc(=O)c2c1 (single isomer, unassigned) [Example 54, 2-[1-[6-Methyl-2-(2-methylpyrazolo[4,3-b]pyridin-5-yl)-4-oxo-chromen-8-yl]ethylamino]benzoic acid] | > 6.30 | 5.30 to 6.00 | > 7.30
16 | CC(Nc1ccccc1C(=O)O)c1cc(F)cc2c(=O)cc(-c3ccc4nn(C)cc4c3)oc12 (single isomer, unassigned) [Example 55, 2-[1-[6-Fluoro-2-(2-methylindazol-5-yl)-4-oxo-chromen-8-yl]ethylamino]benzoic acid] | > 6.30 | 5.30 to 6.00 | > 7.30
17 | Cc1cc(C(C)Nc2ccccc2C(=O)O)c2oc(-c3ccn4nncc4c3)cc(=O)c2c1 (single isomer, unassigned) [Example 58, 2-[1-[6-Methyl-4-oxo-2-(triazolo[1,5-a]pyridin-5-yl)chromen-8-yl]ethylamino]benzoic acid] | > 6.30 | 5.30 to 6.00 | 6.30 to 7.00
18 | Cc1cc(C(C)Nc2ccccc2C(=O)O)c2oc(-c3ccc4[nH]ncc4c3)cc(=O)c2c1 (single isomer, unassigned) [Example 60, 2-[1-[2-(1H-Indazol-5-yl)-6-methyl-4-oxo-chromen-8-yl]ethylamino]benzoic acid] | > 6.30 | 6.00 to 6.30 | > 7.30
19 | Cc1cc(C(C)Nc2ccccc2C(=O)O)c2oc(-c3ccc4[nH]nc(C)c4c3)cc(=O)c2c1 (single isomer, unassigned) [Example 61, 2-[1-[6-Methyl-2-(3-methyl-1H-indazol-5-yl)-4-oxo-chromen-8-yl]ethylamino]benzoic acid] | > 6.30 | 6.00 to 6.30 | 7.00 to 7.30
20 | Cc1cc(C(C)Nc2ccccc2C(=O)O)c2oc(-c3ccc4cn[nH]c4c3)cc(=O)c2c1 (single isomer, unassigned) [Example 63, 2-[1-[2-(1H-Indazol-6-yl)-6-methyl-4-oxo-chromen-8-yl]ethylamino]benzoic acid] | > 6.30 | 6.00 to 6.30 | > 7.30
